Data reported in ChEMBL document CHEMBL1122778, “A mechanism for the addition of multiple moles of glutamate by folylpolyglutamate synthetase” (J Med Chem, 1984).

Key:
[1] = molecular target: T1, Folylpolyglutamate synthase, mitochondrial (Mus musculus) (UniProt P48760); assay: Compound was evaluated for reaction rate of compound in mouse liver Folyl-polyglutamate synthase ([3H]L-glutamate incorporated)
T1 sequence (whole entry): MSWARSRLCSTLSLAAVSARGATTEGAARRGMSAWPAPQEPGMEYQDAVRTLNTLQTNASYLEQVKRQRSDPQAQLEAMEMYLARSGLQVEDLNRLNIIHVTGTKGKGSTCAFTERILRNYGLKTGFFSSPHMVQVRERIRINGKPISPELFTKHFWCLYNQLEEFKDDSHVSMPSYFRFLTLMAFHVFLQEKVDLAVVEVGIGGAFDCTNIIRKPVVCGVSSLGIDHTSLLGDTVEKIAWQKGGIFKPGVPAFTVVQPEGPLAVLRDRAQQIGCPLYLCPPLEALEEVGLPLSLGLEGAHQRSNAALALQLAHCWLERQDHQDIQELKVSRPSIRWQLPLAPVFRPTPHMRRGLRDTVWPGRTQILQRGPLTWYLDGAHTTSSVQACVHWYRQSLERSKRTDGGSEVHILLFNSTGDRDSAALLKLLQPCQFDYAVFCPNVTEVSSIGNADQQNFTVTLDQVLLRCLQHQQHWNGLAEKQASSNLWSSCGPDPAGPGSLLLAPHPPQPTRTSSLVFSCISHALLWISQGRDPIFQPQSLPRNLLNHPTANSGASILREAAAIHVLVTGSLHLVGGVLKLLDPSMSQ

[2] = molecular target: T1, Folylpolyglutamate synthase, mitochondrial (Mus musculus); assay: Concentration required go get half the maximal reaction with Folyl-polyglutamate synthase
[3] = molecular target: T1, Folylpolyglutamate synthase, mitochondrial (Mus musculus); assay: Compound was evaluated for reaction rate of compound in mouse liver Folyl-polyglutamate synthase for 1 hr at a conc of 500 uM ([3H]L-glutamate incorporated)

SMILES	Reaction rate [1]	Concentration [2]	Reaction rate [3]
CN(Cc1cnc2nc(N)nc(N)c2n1)c1ccc(C(=O)N[C@@H](CCC(=O)O)C(=O)O)cc1	1.71 nM/h	47 µM	–
CN(Cc1cnc2nc(N)nc(N)c2n1)c1ccc(C(=O)NC(CCC(=O)NC(CCC(=O)O)C(=O)O)C(=O)O)cc1.CN(Cc1cnc2nc(N)nc(N)c2n1)c1ccc(C(=O)NC(CCC(=O)O)C(=O)O)cc1 (stereo not given)	1.23 nM/h	–	–
CN(Cc1cnc2nc(N)nc(N)c2n1)c1ccc(C(=O)NC(CCC(=O)NC(CCC(=O)O)C(=O)O)C(=O)O)cc1 (stereo not given)	–	163 µM	0.7 nM/h
